# Results as given in patent publication US8193189B2, “Quinoxaline derivatives as tyrosine kinase activity inhibitors” (Novartis AG, priority 2007, dated 2012).
# Key:
# GST-JAK1(866-1154) = biological target: T1, GST-JAK1(866-1154) (Homo sapiens, UniProt P23458); test: EPK JAK-family kinases profiling assay (Caliper mobility shift), JAK1; type: biochemical; conditions: ATP 40 μM, 50 nM kinase
# T1 construct: GST-JAK1(866-1154); made in house
# Excerpt: All four kinases of the JAK-family kinases were used as purified recombinant GST-fusion proteins, containing the active kinase domains. GST-JAK1(866-1154), GST-JAK3(811-1124), and GST-TYK2(888-1187) were expressed and purified by affinity chromatography at the EPK biology unit. GST-JAK2(808-1132) was purchased from Invitrogen (Carlsbad, USA, #4288).
# The kinase assays were based on the Caliper mobility shift assay using the LabChip 3000 systems. This technology is similar to capillary electrophoresis and uses charge driven separation of substrate and product in a microfluidic chip.
# All kinase reactions were performed in 384 well microtiter plates in a total reaction volume of 18 μl. The assay plates were prepared with 0.1 μl per well of test compound in the appropriate test concentration, as described under the section “preparation of compound dilutions”. The reactions were started by combining 9 μl of substrate mix (consisting of peptide and ATP) with 9 μl of kinase dilution. The reactions were incubated for 60 minutes at 30° C. and stopped by adding 70 μl of stop buffer (100 mM Hepes, 5% DMSO, 0.1% Coating reagent, 10 mM EDTA, 0.015% Brij 35).
# Fluorescently labeled synthetic peptides were used as substrates in all reactions. […] Specific assay conditions are described in Table 1:
# The terminated reactions were transferred to the Caliper LabChip 3000 reader and the turnover of each reaction was measured by determining the substrate/product ratio.
# Test compounds were dissolved in DMSO (10 mM) and transferred into 1.4 mL flat bottom or V-shaped Matrix tubes carrying a unique 2D matrix chip by individual compound hubs. The numbers of these chips were distinctively linked to the individual compound identification numbers. The stock solutions were stored at −20° C. if not used immediately. For the test procedure the vials were defrosted and identified by a scanner whereby a working sheet was generated that guided the subsequent working steps.
# Compound dilutions were made in 96 well plates. This format enabled the assay of maximally 40 individual test compounds at 8 concentrations (single points) including 4 reference compounds. The dilution protocol included the production of pre-dilution plates, master plates and assay plates:
# Pre-dilution plates: 96 polypropylene well plates were used as pre-dilution plates. A total of 4 pre-dilution plates were prepared including 10 test compounds each on the plate positions A1-A10, one standard compound at A11 and one DMSO control at A12. All dilution steps were done on a HamiltonSTAR robot.
# Master plates: 100 μL of individual compound dilutions including standard compound and controls of the 4 “pre-dilution plates” were transferred into a 384 “master plate” including the following concentrations 1′820, 564, 182, 54.6, 18.2, 5.46, 1.82 and 0.546 μM, respectively in 90% of DMSO.
# Assay plates: Identical assay plates were then prepared by pipetting 100 nL each of compound dilutions of the master plates into 384-well “assay plates”. […] The preparation of the master plates were handled by the Matrix PlateMate Plus robot and replication of assay plates by the HummingBird robot.
# GST-JAK2(808-1132) = biological target: T2, GST-JAK2(808-1132) (Homo sapiens, UniProt O60674); test: EPK JAK-family kinases profiling assay (Caliper mobility shift), JAK2; type: biochemical; conditions: ATP 20 μM, 1.8 nM kinase
# T2 construct: GST-JAK2(808-1132); purchased Invitrogen (Carlsbad, USA) #4288
# Method in brief: (§1)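 Turnover was read as substrate/product ratio after mobility-shift capillary-like separation of each reaction, run for 60 min at 30 °C with GST-tagged kinase domain, labelled peptide and ATP, and terminated with EDTA stop buffer.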
# GST-JAK3(811-1124) = biological target: T3, GST-JAK3(811-1124) (Homo sapiens, UniProt P52333); test: EPK JAK-family kinases profiling assay (Caliper mobility shift), JAK3; type: biochemical; conditions: ATP 80 μM, 6 nM kinase
# T3 construct: GST-JAK3(811-1124); made in house
# Method in brief: as §1
# [1] = test system: JAK/STAT pathway (JAK1/JAK2-dependent nuclear translocation of STAT1-GFP); test: Inhibition of the JAK/STAT pathway: IFN-γ stimulated nuclear translocation of STAT1-GFP in HT1080 fibrosarcoma cells; type: cell-based; conditions: Homo sapiens, HT-1080; HT1080 STAT1-GFP cells, 100 ng/ml IFN-γ 2 hours, compound added 30 min before; read-out: STAT1translo IC50
# Method in brief: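 Readout is the nuclear-minus-cytoplasmic GFP-STAT1 intensity, imaged at 10× using Hoechst-defined nuclear masks over at least 1000 cells/well. Stably transfected HT1080 fibrosarcoma cells were pretreated 30 min with compound (final 0.003–10 μM, 0.1% DMSO) before IFN-γ challenge.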
# T3 sequence (P52333 811-1124): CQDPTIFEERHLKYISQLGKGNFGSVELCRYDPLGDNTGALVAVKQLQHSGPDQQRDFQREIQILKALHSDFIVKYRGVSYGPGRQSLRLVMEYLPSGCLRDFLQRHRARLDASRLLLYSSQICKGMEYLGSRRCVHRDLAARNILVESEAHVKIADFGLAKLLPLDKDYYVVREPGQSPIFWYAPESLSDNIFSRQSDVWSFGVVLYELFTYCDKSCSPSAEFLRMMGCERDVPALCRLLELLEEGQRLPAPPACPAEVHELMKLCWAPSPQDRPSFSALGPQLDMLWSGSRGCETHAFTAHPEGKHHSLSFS
# T1 sequence (P23458 866-1154): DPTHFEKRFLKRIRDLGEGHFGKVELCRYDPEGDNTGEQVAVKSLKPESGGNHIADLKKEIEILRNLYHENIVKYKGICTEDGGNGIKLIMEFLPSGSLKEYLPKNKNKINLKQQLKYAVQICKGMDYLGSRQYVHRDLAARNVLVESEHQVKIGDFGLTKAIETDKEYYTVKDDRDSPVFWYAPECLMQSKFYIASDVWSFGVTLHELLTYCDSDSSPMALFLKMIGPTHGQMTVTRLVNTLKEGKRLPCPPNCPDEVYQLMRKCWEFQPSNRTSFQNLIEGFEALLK
# T2 sequence (O60674 808-1132): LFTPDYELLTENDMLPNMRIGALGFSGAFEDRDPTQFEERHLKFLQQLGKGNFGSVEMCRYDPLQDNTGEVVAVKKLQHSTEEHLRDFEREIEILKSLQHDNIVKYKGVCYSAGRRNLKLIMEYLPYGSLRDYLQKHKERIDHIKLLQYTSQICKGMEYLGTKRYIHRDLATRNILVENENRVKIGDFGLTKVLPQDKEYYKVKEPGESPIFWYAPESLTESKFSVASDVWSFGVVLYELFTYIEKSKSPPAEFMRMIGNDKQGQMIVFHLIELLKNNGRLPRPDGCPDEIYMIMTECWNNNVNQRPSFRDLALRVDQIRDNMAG
SMILES,IC50 (GST-JAK1(866-1154)),IC50 (GST-JAK2(808-1132)),IC50 (GST-JAK3(811-1124)),IC50 [1]
"Cc1cc(-c2cnc3cccc(-c4ccc(CN5CCOCC5)c(F)c4)c3n2)ccc1C(=O)N1CCOCC1 [Example 58, {4-[8-(3-Fluoro-4-morpholin-4-ylmethyl-phenyl)-quinoxalin-2-yl]-2-methyl-phenyl}-morpholin-4-yl-methanone]",90 nM,11 nM,320 nM,220 nM
"Cc1cc(-c2cnc3cccc(-c4cc(F)c(CN5CCOCC5)c(F)c4)c3n2)ccc1C(=O)N1CCOCC1 [Example 59, {4-[8-(3,5-Difluoro-4-morpholin-4-ylmethyl-phenyl)-quinoxalin-2-yl]-2-methyl-phenyl}-morpholin-4-yl-methanone]",520 nM,20 nM,1950 nM,635 nM
"Cc1cc(-c2cnc3cccc(-c4ccc(C(=O)N5CCCC5)c(C)c4)c3n2)ccc1C(=O)N1CCCC1 [Example 68, (2-Methyl-4-{3-[3-methyl-4-(pyrrolidine-1-carbonyl)-phenyl]-quinoxalin-5-yl}-phenyl)-pyrrolidin-1-yl-methanone]",2300 nM,109 nM,6850 nM,4890 nM
"O=C(Cc1ccc(-c2cccc3ncc(-c4ccc(OCCCN5CCOCC5)cc4)nc23)cc1)N1CCOCC1 [Example 74, 1-Morpholin-4-yl-2-(4-{3-[4-(3-morpholin-4-yl-propoxy)-phenyl]-quinoxalin-5-yl}-phenyl)-ethanone]",310 nM,25 nM,1300 nM,2610 nM
"O=C(c1ccc(-c2cccc3ncc(-c4ccc(OCCCN5CCOCC5)cc4)nc23)cc1F)N1CCOCC1 [Example 75, (2-Fluoro-4-{3-[4-(3-morpholin-4-yl-propoxy)-phenyl]-quinoxalin-5-yl}-phenyl)-morpholin-4-yl-methanone]",410 nM,34 nM,1700 nM,> 10000 nM
"Cc1cc(-c2cnc3cccc(-c4ccc(CC(=O)N5CCOCC5)c(F)c4)c3n2)ccc1OCCCN1CCOCC1 [Example 76, 2-(2-Fluoro-4-{3-[3-methyl-4-(3-morpholin-4-yl-propoxy)-phenyl]-quinoxalin-5-yl}-phenyl)-1-morpholin-4-yl-ethanone]",690 nM,59.5 nM,4100 nM,5990 nM
"CCN1CCN(C(=O)c2ccc(-c3cnc4cccc(-c5ccc(C(C)(C)N6CCOCC6)c(C)c5)c4n3)cc2C)CC1 [Example 80, (4-Ethyl-piperazin-1-yl)-(2-methyl-4-{8-[3-methyl-4-(1-methyl-1-morpholin-4-yl-ethyl)-phenyl]-quinoxalin-2-yl}-phenyl)-methanone]",3800 nM,75 nM,4550 nM,1550 nM
"CCN1CCN(C(=O)c2ccc(-c3cnc4cccc(-c5ccc(C(C)(C)N6CCS(=O)(=O)CC6)c(C)c5)c4n3)cc2C)CC1 [Example 81, [4-(8-{4-[1-(1,1-Dioxido-thiomorpholin-4-yl)-1-methyl-ethyl]-3-methyl-phenyl}-quinoxalin-2-yl)-2-methyl-phenyl]-(4-ethyl-piperazin-1-yl)-methanone]",1150 nM,16.5 nM,780 nM,389 nM
"CCN1CCN(C(=O)c2ccc(-c3cnc4cccc(-c5cc(F)c(CN6CCOCC6)c(F)c5)c4n3)cc2C)CC1 [Example 82, {4-[8-(3,5-Difluoro-4-morpholin-4-ylmethyl-phenyl)-quinoxalin-2-yl]-2-methyl-phenyl}-(4-ethyl-piperazin-1-yl)-methanone]",490 nM,14 nM,1250 nM,946 nM

# Further lines, results first:
IC50 (GST-JAK1(866-1154)),IC50 (GST-JAK2(808-1132)),IC50 (GST-JAK3(811-1124)),IC50 [1],SMILES
165 nM,15 nM,1400 nM,235 nM,"Cc1cc(-c2cnc3cccc(-c4ccc(CN5CCS(=O)(=O)CC5)c(Cl)c4)c3n2)ccc1C(=O)N1CCOCC1 [Example 61, (4-{8-[3-Chloro-4-(1,1-dioxido-thiomorpholin-4-ylmethyl)-phenyl]-quinoxalin-2-yl}-2-methyl-phenyl)-morpholin-4-yl-methanone]"
44.5 nM,5.7 nM,330 nM,82 nM,"Cc1cc(-c2cnc3cccc(-c4ccc(CN5CCS(=O)(=O)CC5)c(F)c4)c3n2)ccc1C(=O)N1CCOCC1 [Example 62, (4-{8-[4-(1,1-Dioxido-thiomorpholin-4-ylmethyl)-3-fluoro-phenyl]-quinoxalin-2-yl}-2-methyl-phenyl)-morpholin-4-yl-methanone]"
240 nM,15.5 nM,860 nM,2180 nM,"Cc1cc(-c2cnc3cccc(-c4ccc(CN5CCOCC5)c(F)c4)c3n2)ccc1C(=O)N1CCCC1 [Example 65, {4-[8-(3-Fluoro-4-morpholin-4-ylmethyl-phenyl)-quinoxalin-2-yl]-2-methyl-phenyl}-pyrrolidin-1-yl-methanone]"
140 nM,6.05 nM,250 nM,1000 nM,"Cc1cc(-c2cnc3cccc(-c4cc(F)c(CN5CCOCC5)c(F)c4)c3n2)ccc1C(=O)N1CCCC1 [Example 66, {4-[8-(3,5-Difluoro-4-morpholin-4-ylmethyl-phenyl)-quinoxalin-2-yl]-2-methyl-phenyl}-pyrrolidin-1-yl-methanone]"
96.5 nM,< 3 nM,405 nM,475 nM,"Cc1cc(-c2cnc3cccc(-c4ccc(CN5CCS(=O)(=O)CC5)c(Cl)c4)c3n2)ccc1C(=O)N1CCCC1 [Example 67, (4-{8-[3-Chloro-4-(1,1-dioxido-thiomorpholin-4-ylmethyl)-phenyl]-quinoxalin-2-yl}-2-methyl-phenyl)-pyrrolidin-1-yl-methanone]"
75 nM,6.7 nM,890 nM,530 nM,"Cc1cc(-c2cnc3cccc(-c4ccc(CC(=O)N5CCS(=O)(=O)CC5)c(F)c4)c3n2)ccc1CN1CCOCC1 [Example 69, 1-(1,1-Dioxido-thiomorpholin-4-yl)-2-{2-fluoro-4-[3-(3-methyl-4-morpholin-4-ylmethyl-phenyl)-quinoxalin-5-yl]-phenyl}-ethanone]"
110 nM,5.7 nM,670 nM,1120 nM,"Cc1cc(-c2cnc3cccc(-c4ccc(CC(=O)N5CCS(=O)(=O)CC5)c(F)c4)c3n2)ccc1Cn1ccnc1 [Example 72, 1-(1,1-Dioxido-thiomorpholin-4-yl)-2-{2-fluoro-4-[3-(4-imidazol-1-ylmethyl-3-methyl-phenyl)-quinoxalin-5-yl]-phenyl}-ethanone]"
190 nM,28 nM,370 nM,> 10000 nM,"O=C(c1ccc(-c2cccc3ncc(-c4ccc(OCCCN5CCOCC5)cc4)nc23)cc1F)N1CCS(=O)(=O)CC1 [Example 73, (1,1-Dioxido-thiomorpholin-4-yl)-(2-fluoro-4-{3-[4-(3-morpholin-4-yl-propoxy)-phenyl]-quinoxalin-5-yl}-phenyl)-methanone]"
